According to US20140348880A1, “Ortho-Aminothiophenol Compounds and Uses Thereof” (Cape Breton University, priority 2013, published 2014):

Columns and labels:
[1] = system: B. cereus; assay: Disc diffusion zone of inhibition (Example 2); type: cell-based, Bacillus cereus; conditions: 10 μg/disc
Protocol: (§1) The growth medium was prepared by addition of Müller-Hinton agar (38 g) to 1 L distilled water under vigorous stirring and boiled for 10 min until complete dissolution. After cooling to 25° C., the pH value of the medium was 7.3±0.1. The medium was sterilized in an autoclave at 121° C. for 15 min at 20 psi, cooled to 45-50° C. and dispended into sterile Petri dishes on a leveled, horizontal surface to give uniform depth. Stock solutions of the microorganisms were incubated at 37° C. for 24 h and the turbidity of these microbial colony were adjusted visually with sterile saline (0.85% w/v NaCl) to 0.5 McFarland standards (bioMerieux, SA (France) they are made from barium sulfate (BaSO4). Within 15 min after adjusting the turbidity of the suspensions, the Petri dishes were inoculated using sterile cotton buds. The prepared antibiotic assay discs were placed on the surface of the seeded Müller-Hinton agar using flame sterilized forceps.
(§2) Stock solutions of compounds of Formula I, Ia, Ib and Formula II, IIa, pharmaceutically acceptable salts thereof, and metal complexes thereof were made in DMSO and were micropipetted onto the discs for 25 to 200 μg/disc. The discs were dried at ambient temperature for 30-50 min before placement onto the seeded Petri dishes which were then incubated at 37° C. for 24 h. Averaged inhibition zone diameters measurements (mm) have an accuracy of ±0.5 mm; adjacent overlapping ZOI were determined using radii measurements. Antibiotic disc like (sulfamethoxazole 23.75 μg trimethoprim 1.25 μg)/disc, Gentamicin 10 μg/disc and DMSO were used as positive and negative standards (control).
(§3) Antimicrobial test was carried out to evaluate the efficacy of compounds of Formula I, Ia, Ib and Formula II, IIa, pharmaceutically acceptable salts thereof, and metal complexes thereof, as well as control tests with control compounds, against six major pathogenic bacteria namely Bacillus cereus, Pseudomonas aeruginosa, Klebsiella pneumonia, Proteus vulgaris, Staphylococcus aureus and Escherichia coli.

[2] = system: E. coli; assay: Disc diffusion zone of inhibition (Example 2); type: cell-based, Escherichia coli; conditions: 10 μg/disc
Protocol: as §1, §2, §3

[3] = system: P. aeruginosa; assay: Disc diffusion zone of inhibition (Example 2); type: cell-based, Pseudomonas aeruginosa; conditions: 10 μg/disc
Protocol: as §1, §2, §3

[4] = system: P. vulgaris; assay: Disc diffusion zone of inhibition (Example 2); type: cell-based, Proteus vulgaris; conditions: 10 μg/disc
Protocol: as §1, §2, §3

[5] = system: K. pnemonia; assay: Disc diffusion zone of inhibition (Example 2); type: cell-based, Klebsiella pneumonia; conditions: 10 μg/disc
Protocol: as §1, §2, §3

[6] = system: S. aureus; assay: Disc diffusion zone of inhibition (Example 2); type: cell-based, Staphylococcus aureus; conditions: S. aureus; 10 μg/disc
Protocol: as §1, §2, §3

[7] = system: Bacillus cereus; assay: In vitro disc diffusion assay, ZOI (Example 3); type: cell-based; conditions: B. cereus; control; 10 μg/disc
Protocol: (§4) Sterile assay discs (6 mm diameter) were obtained from VWR Whatman and antibiotic assay discs (6 mm diameter) containing getamicin (10 μg/disc) and the combination drug sulfamethoxazole 23.75 μg/disc and trimethoprim 1.25 μg/disc were obtained from Becton, Dickinson and Company (USA). Dimethyl sulfoxide (DMSO) for microbial experiments was BioReagent™ grade and was purchased from Sigma-Aldrich. The nutrient broth and Müller-Hinton agar was purchased from Becton, Dickinson and Company (USA). Bacillus cereus, Pseudomonas aeruginosa (#27853), Klebsiella pneumonia (#13883), Proteus vulgaris (#13315), Staphylococcus aureus (#25923) and Escherichia coli (#25922) strains were obtained from the American Type Culture Collection (ATCC). All materials in contact with antimicrobial matter was treated for 40 min at 121° C. and 20 psi in a biohazard autoclave bag prior to waste disposing or washing. McFarland turbity standards containing barium sulfate were obtained from bioMérieux.
as §1, with “the” for “these”, “colonies” for “colony”, “standards.” for “standards (bioMerieux, SA (France) they are made from barium sulfate (BaSO4).”
(§5) Stock solutions of compounds and the Cu complexed compounds were made in DMSO and were micropipetted onto the discs for 25 to 200 μg compound/disc. The discs were dried at ambient temperature for 30-50 min before placement onto the seeded Petri dishes which were then incubated at 37° C. for 24 h. Averaged inhibition zone measurements (mm) have an accuracy of ±0.5 mm; adjacent overlapping ZOI were determined using radii measurements.

[8] = system: Escherichia coli (#25922); assay: In vitro disc diffusion assay, ZOI (Example 3); type: cell-based; conditions: E. coli; control; 10 μg/disc
Protocol: as §4
as §1, with “the” for “these”, “colonies” for “colony”, “standards.” for “standards (bioMerieux, SA (France) they are made from barium sulfate (BaSO4).”
as §5

[9] = system: Klebsiella pneumonia (#13883); assay: In vitro disc diffusion assay, ZOI (Example 3); type: cell-based; conditions: K. pnemonia; control; 10 μg/disc
Protocol: as §4
as §1, with “the” for “these”, “colonies” for “colony”, “standards.” for “standards (bioMerieux, SA (France) they are made from barium sulfate (BaSO4).”
as §5

[10] = system: Proteus vulgaris (#13315); assay: In vitro disc diffusion assay, ZOI (Example 3); type: cell-based; conditions: P. vulgaris; control; 10 μg/disc
Protocol: as §4
as §1, with “the” for “these”, “colonies” for “colony”, “standards.” for “standards (bioMerieux, SA (France) they are made from barium sulfate (BaSO4).”
as §5

[11] = system: Pseudomonas aeruginosa (#27853); assay: In vitro disc diffusion assay, ZOI (Example 3); type: cell-based; conditions: P. aeruginosa; control; 10 μg/disc
Protocol: as §4
as §1, with “the” for “these”, “colonies” for “colony”, “standards.” for “standards (bioMerieux, SA (France) they are made from barium sulfate (BaSO4).”
as §5

[12] = system: Staphylococcus aureus (#25923); assay: In vitro disc diffusion assay, ZOI (Example 3); type: cell-based; conditions: S. aureus; control; 10 μg/disc
Protocol: as §4
as §1, with “the” for “these”, “colonies” for “colony”, “standards.” for “standards (bioMerieux, SA (France) they are made from barium sulfate (BaSO4).”
as §5

Question: Which results are given for Gentamicin?
Answer: Zone of Inhibition [1]: 25 mm; Zone of Inhibition [2]: 24 mm; Zone of Inhibition [3]: 20 mm; Zone of Inhibition [4]: 24 mm; Zone of Inhibition [5]: 25 mm; Zone of Inhibition [6]: 25 mm; ZOI [7]: 9.5 mm; ZOI [8]: 9 mm; ZOI [9]: 9.5 mm; ZOI [10]: 9 mm; ZOI [11]: 7 mm; ZOI [12]: 9.5 mm
